Results: patent publication US12187672B2, “1,2-diacylglycerol compound, preparation method therefor, and immunomodulator containing same as active ingredient” (ENZYCHEM LIFESCIENCES CORPORATION, priority 2018, dated 2025)

Tests used:
STAT6 = assay: IL-4-induced STAT6 activity, pGL4-STAT6 luciferase reporter in A549 cells; assay type: cell-based; conditions: sample 100 μg/ml 1 h
Procedure: In DMEM (Dulbecco Modified Eagle Medium, Hyclone, Thermo Scientific) medium to which 10% Fetal Bovine Serum was added, A549 cells were subcultured at a concentration of 1×10^5 cells/ml, and culture was conducted in a 5% CO2 humidified incubator at 37° C. The cultured A549 cells were inoculated into a 48 well plate by 1×10^5 cells/ml and stabilized for 18 hours. Thereafter, pGL4-STAT6 reporter vector containing a STAT6 binding promoter portion was mixed with Attractene to induce complex formation at room temperature for 15 minutes. This complex was treated with the cells and then further incubated for 24 hours. Thereafter, the culture solution was treated with a glycerol derivative compounds of the type shown in Table 9 and 10 below for 1 hour, and then IL-4 (2 ng/ml or 10 ng/ml) was further incubated for 20 hours for STAT6 activity. Thereafter, the culture supernatant was removed for each well, and the remaining cells were lysed with a cell lysis buffer, and then cell lysate was recovered. 90 μl of luciferase reagent was mixed with 10 μl of the recovered cell lysate, and the degree of fluorescence was confirmed using a luminometer. The results are shown in Table 9, Table 10, FIG. 9 and FIG. 10 below.

STAT3 [1] = assay: IL-6-induced STAT3 activity, SEAP expression in HEK-Blue IL-6 cells; assay type: cell-based; conditions: for STAT3 activity_SEAP expression(%) (average ± deviation): HEK-Blue IL-6 cells, negative control = 100
Procedure: HEK-Blue™ IL-6 cells were used to confirm STAT3 activity by STAT3-induced SEAP (secreted embryonic alkaline phosphatase) expression. In DMEM (Hyclone, Thermo Scientific) medium to which 10% Fetal Bovine Serum was added, HEK-Blue™ IL-6 cells were cultured at a concentration of 1×10^5 cells/ml, and maintained in a 5% CO2 humidified incubator at 37° C. The cultured HEK-Blue™ IL-6 cells were inoculated by 1×10^5 cells/ml. Then, the culture solution was treated with a glycerol derivative compounds of the type shown in Table 4 below for 1 hour and then IL-6 (5 ng/ml) was further incubated for 24 hours for STAT3 activity. Thereafter, the culture supernatant was collected for each well and centrifuged (at 3000 rpm, 5 minutes) to recover the supernatant. The SEAP expression level in the recovered supernatant was mixed with Quanti blue reagent and the supernatant at a ratio of 1:10 and left at 37° C. for about 30 minutes. Then, the SEAP concentration was confirmed at 650 nm wavelength using a spectrophotometer, and the results (STAT3 activity inhibitory ability) thereof are shown in Table 4 and FIG. 3 below.

IL-6 = assay: LPS-induced IL-6 secretion reduction in RAW264.7 cells (ELISA); assay type: cell-based, mouse; conditions: sample 100 μg/ml 1 h, then LPS 1 μg/ml 24 h
Procedure: In DMEM (Dulbecco Modified Eagle Medium, Hyclone, Thermo Scientific) medium to which 10% Fetal Bovine Serum was added, RAW264.7 cells, a mouse macrophage family, were suspended at a concentration of 1×10^5 cells/ml, and culture was conducted in a 5% CO2 humidified incubator at 37° C. The cultured RAW264.7 cells were inoculated into a 48 well plate by 5×10^4 cells/ml and stabilized for 15 hours. Then, the culture solution was treated with a glycerol derivative compounds of the type shown in Table 2 and 3 below for 1 hour and then was treated with 1 μg/ml of Lipopolysaccaride (LPS) of a cell stimulator, and subsequent further incubation was conducted for 24 hours. Thereafter 0.5 ml of the culture supernatant was collected for each well and centrifuged (at 3000 rpm, 5 minutes) to recover the supernatant. The IL-6 level in the recovered supernatant was measured according to the manual provided by the Mouse IL-6 ELISA set (BD Biosciences). The day before ELISA was carried out, the IL-6 capture antibody was diluted in phosphate buffered saline, coated on a microwell, and then stored at 4° C. overnight. Each well was washed three times with a buffer solution and then blocked with 2% Bovine Serum Albumin (BSA) for 1 hour at room temperature. After washing with buffer solution three times, […] of sample was dispensed into each well and left at room temperature for 2 hours. Detection antibody which was washed 3 times with washing buffer solution and diluted was dispensed into each well and allowed to react at room temperature for 1 hour and left at room temperature for 1 hour. Thereafter, the secondary HRP conjugated antibody was reacted at room temperature for 30 minutes, washed three times with a buffer solution, and treated with 50 μl of stop solution for each well, and then the optical density was measured at 450 nm with an ELISA microplate leader. The results of the IL-6 expression reduction rate (IL-6 concentration) are shown in Table 2, Table 3, FIG. 1 and FIG. 2 below.

IL-4 = assay: PKC activator-induced IL-4 secretion reduction in EL-4 cells (ELISA); assay type: cell-based, mouse; conditions: sample 100 μg/ml 2 h, then PKC activator 18 h
Procedure: In DMEM (Dulbecco Modified Eagle Medium, Hyclone, Thermo Scientific) medium to which 10% Fetal Bovine Serum was added, EL-4 cells, a mouse lymphoma family, were subcultured at a concentration of 1×10^5 cells/ml, and culture was conducted in a 5% CO2 humidified incubator at 37° C. The cultured EL-4 cells were inoculated into a 48 well plate by 5×10^4 cells/ml and stabilized for 30 hours. Then, the culture solution was treated with a glycerol derivative compounds of the type shown in Table 11 and 12 below for 2 hours. Thereafter, it were treated with 0.5 μg/ml of PKC activator (p10, some kind of PMA) of a cell stimulator, and subsequent further incubation were conducted for 18 hours. Thereafter 0.5 ml of the culture supernatant was collected for each well and centrifuged (at 3000 rpm, 5 minutes) to recover the supernatant. The IL-4 level in the recovered supernatant was measured according to the manual provided by the Mouse IL-4 ELISA set (BD Biosciences). The day before ELISA was carried out, the IL-4 capture antibody was diluted in phosphate buffered saline, coated on a microwell, and then stored at 4° C. overnight. Each well was washed three times with a buffer solution and then blocked with 2% Bovine Serum Albumin (BSA) for 1 hour at room temperature. After washing with buffer solution three times, 100 μl of sample was dispensed into each well and left at room temperature for 2 hours. Detection antibody which was washed 3 times with washing buffer solution and diluted was dispensed into each well and allowed to react at room temperature for 1 hour and left at room temperature for 1 hour. Thereafter, the secondary HRP conjugated antibody was reacted at room temperature for 30 minutes, washed three times with buffer solution, and treated with 50 μl of stop solution for each well, and then the optical density was measured at 450 nm with an ELISA microplate leader. The results of the measured expression reduction rate ([…]) were shown in Table 11, Table 12, FIG. 11 and FIG. 12 below.

CXCL8 (IL-8) = CXCL8 (IL-8) expression reduction in Gemcitabine-treated THP-1 cells (ELISA); assay type: cell-based, human; conditions: THP-1 cells; sample 100 μg/ml 1 h, then Gemcitabine 2 μg/ml 24 h
Procedure: In RPMI (Hyclone, Thermo Scientific) medium to which 10% Fetal Bovine Serum was added, THP-1 cells, a human macrophage family, were suspended at a concentration of 1×10^5 cells/ml, and culture was conducted in a 5% CO2 humidified incubator at 37° C. The cultured THP-1 cells were inoculated into a 12 well plate by 1×10^6 cells/ml and stabilized for 30 minutes. Then, the culture solution was treated with a glycerol derivative compounds of the type shown in Table 6 below for 1 hour and then was treated with Gemcitabine (2 μg/ml) of a cell stimulator, and subsequent further incubation was conducted for 24 hours. Thereafter 1.5 ml of the culture supernatant was collected for each well and centrifuged (at 3000 rpm, 5 minutes) to recover the supernatant. The CXCL8 (IL-8) level in the recovered supernatant was measured according to the manual provided by the human IL-8 ELISA set (BD Biosciences). The day before ELISA was carried out, the IL-8 capture antibody was diluted in phosphate buffered saline, coated on a microwell, and then stored at 4° C. overnight. Each well was washed three times with a buffer solution and then blocked with 2% Bovine Serum Albumin (BSA) for 1 hour at room temperature. After washing with washing buffer solution three times, 100 μl of sample was dispensed into each well and left at room temperature for 2 hours. Detection antibody which was washed 3 times with washing buffer and diluted was dispensed into each well and allowed to react at room temperature for 1 hour and left at room temperature for 1 hour. Thereafter, the secondary HRP conjugated antibody was reacted at room temperature for 30 minutes, washed three times with a washing buffer, and treated with 50 μl of stop solution for each well, and then the optical density was measured at 450 nm with an ELISA microplate leader.

STAT3 [2] = assay: STAT3 activity, pGL4.47 SIE luciferase reporter in LPS-treated RAW264.7 cells; assay type: cell-based, mouse; conditions: sample 100 μg/ml 1 h, then LPS 1 μg/ml 18 h
Procedure: pGL4.47 [luc2P/SIE/Hygro] vector containing the sis-Inducible Element that binds to STAT3 was injected into RAW264.7 cells to confirm the degree of STAT3 activity. In DMEM (Hyclone, Thermo Scientific) medium to which 10% Fetal Bovine Serum was added, RAW264.7 cells were cultured at a concentration of 1×10^5 cells/ml, and maintained in a 5% CO2 humidified incubator at 37° C. The cultured RAW264.7 cells were inoculated into a 48 well plate by 1×10^5 cells/ml and stabilized for 18 hours. Thereafter, the pGL4.47 [luc2P/SIE/Hygro] vector containing sis-Inducible Element was mixed with Attractene to induce complex formation at room temperature for 15 minutes. This complex was treated with the cells and then further incubated for 18 hours. Thereafter, the culture solution was treated with a glycerol derivative compounds of the type shown in Table 5 below for 1 hour and then LPS (1 μg/ml) was treated and further incubated for 18 hours for STAT3 activity. Thereafter, the culture supernatant was removed for each well, and the remaining cells were lysed with a cell lysis buffer, and then cell lysate was recovered. 90 μl of luciferase reagent was mixed with 10 μl of the recovered cell lysate, and the degree of fluorescence was confirmed using a luminometer.

HL-60 cells = assay: Migration of HL-60 cell line toward THP-1 culture supernatant (transmigration assay); assay type: cell-based, human; conditions: supernatant of THP-1 cells treated with sample 100 μg/ml 1 h, then Gemcitabine 2 μg/ml 24 h
Procedure: In RPMI (Hyclone, Thermo Scientific) medium to which 10% Fetal Bovine Serum was added, THP-1 cells, a human macrophage family, were subcultured at a concentration of 1×10^5 cells/ml, and culture was conducted in a 5% CO2 humidified incubator at 37° C. In order to prepare the THP-1 cell culture solution to be treated in the lower well during the transmigration assay, first, the cultured THP-1 cells were inoculated into a 12 well plate by 1×10^6 cells/ml and stabilized for 30 minutes. Then, the culture solution was treated with a glycerol derivative compounds of the type shown in Table 7 below for 1 hour and then was treated with Gemcitabine (2 μg/ml) of a cell stimulator, and subsequent further incubation was conducted for 24 hours. Thereafter 1.5 ml of the culture supernatant was collected for each well and centrifuged (at 3000 rpm, 5 minutes) to recover the supernatant. The CXCL8 (IL-8) level in the recovered supernatant was measured according to the manual provided by Cultrex 96 well Laminin Cell Invasion assay. The day before Transmigration assay was carried out, a 1× Lamin I solution was treated in the upper Invasion Chamber and coated. Thereafter, in RPMI (Hyclone, Thermo Scientific) medium to which 10% Fetal Bovine Serum was added, the cultured HL-60 cells were despensed of 5×10^4 cells/chamber, and 150 μl of the THP-1 culture supernatant prepared in advance was added to the lower chamber. Thereafter the upper chamber was removed, and the cells were attached to the bottom of the lower chamber by a centrifuge, and then the supernatant was removed. Cell dissociation/Calcein-AM solution was added and reacted for 1 hour. Then, the value obtained using a fluorescence spectroscopy was calculated by converting the number of cells.

[3] = then IL-4 (2 ng/ml) 20 h, Table 9
[4] = sample 100 μg/ml 1 h, then IL-6 5 ng/ml 24 h
[5] = then IL-4 (10 ng/ml) 20 h, Table 10

Row | Compound | STAT3 activity_SEAP expression(%) (average ± deviation) (STAT3 [1]; [4]) | IL-6 concentration (average ± deviation) (IL-6; Table 2) [µg/mL] | STAT3 activity_Luciferase activity (average ± deviation) (STAT3 [2]) | IL-4 concentration (average ± deviation) (IL-4; Table 12) [pg/µL] | IL-6 concentration (average ± deviation) (IL-6; Table 3) [µg/mL] | further results
1 | CCCCC/C=C\C/C=C\CCCCCCCC(=O)OC(COCC)COC(=O)CCCCCCCCCCCCCCC (stereo not shown) [EC_A14] | 185.0 ± 30.0 | 0.277 ± 0.002 | – | – | – | STAT6 activity_Luciferase activity (average ± deviation) (STAT6; [3]): 539.2 ± 40.3
2 | CCCCC/C=C\C/C=C\CCCCCCCC(=O)OC(COC(=O)CCCCCCCCCCCCCCC)COC(=O)C(C)CC (stereo not shown) [EC_A20] | 196.7 ± 35.1 | 0.055 ± 0.001 | – | – | – | STAT6 activity_Luciferase activity (average ± deviation) (STAT6; [3]): 609.5 ± 197.0; IL-4 concentration (average ± deviation) (IL-4; Table 11): 194.2 ± 47.5 pg/µL
3 | CCCCC/C=C\C/C=C\CCCCCCCC(=O)OC(COC(=O)CN)COC(=O)CCCCCCCCCCCCCCC (stereo not shown) [EC_A57] | 243.0 ± 29.5 | 0.120 ± 0.002 | – | – | – | IL-4 concentration (average ± deviation) (IL-4; Table 11): 745.6 ± 8.35 pg/µL
4 | CCCCC/C=C\C/C=C\CCCCCCCC(=O)OC(COC(=O)CCCCCCCC)COC(=O)CCCCCCCCCCCCCCC (stereo not shown) [EC_A84] | – | – | 780 ± 27.5 | 615.6 ± 25.0 | 0.000799 ± 2.5e-05 | CXCL8 [IL-8] concentration (average ± deviation) (CXCL8 (IL-8)): 110.5 ± 6.8 pg/µL; Number of HL-60 cells migrated through Transwell (HL-60 cells): 2197.8 Cell Number
5 | CCCCC/C=C\C/C=C\CCCCCCCC(=O)OC(COC(=O)CCCCCCCCCCC)COC(=O)C(C)C (stereo not shown) [EC_A94] | – | – | 640 ± 275.7 | 523.8 ± 62.3 | 0.000702 ± 7.9e-05 | STAT6 activity_Luciferase activity (average ± deviation) (STAT6; [5]): 14677.5 ± 2168.7
6 | CCCCC/C=C\C/C=C\CCCCCCCC(=O)OC(COC(=O)CCCCCCCCCCC)COC(=O)C(C)(C)C (stereo not shown) [EC_A95] | – | – | 663 ± 61.5 | 680.1 ± 12.2 | 0.000777 ± 2e-05 | STAT6 activity_Luciferase activity (average ± deviation) (STAT6; [5]): 13649.0 ± 7369.3
7 | IL-6: IL-6 cytokine used to induce STAT3 activity [reference compound] | – | – | – | – | – | increase of STAT3 activity compared to the negative control group (STAT3 [1]; HEK-Blue IL-6 cells treated with IL-6): about 2.3 times; STAT3 activity_SEAP expression(%) (average ± deviation) (STAT3 [1]; IL-6 5 ng/ml alone): 228.8 ± 17.0%
